# Laboratory results from patent US9994594B2, “Inhibitors of arginase and their therapeutic applications” (MARS, INCORPORATED, priority 2010, dated 2018).
# Structures can show the parent of a compound that is named as a salt. Where two headings read alike, the source gives them in different places.
# Key:
# [1] = target: T1, arginase II (ARG II) (Homo sapiens, UniProt P78540); assay: Inhibition of arginase II, spectrophotometric urea assay at 530 nm; type: biochemical
# T1 sequence (P78540 23-354): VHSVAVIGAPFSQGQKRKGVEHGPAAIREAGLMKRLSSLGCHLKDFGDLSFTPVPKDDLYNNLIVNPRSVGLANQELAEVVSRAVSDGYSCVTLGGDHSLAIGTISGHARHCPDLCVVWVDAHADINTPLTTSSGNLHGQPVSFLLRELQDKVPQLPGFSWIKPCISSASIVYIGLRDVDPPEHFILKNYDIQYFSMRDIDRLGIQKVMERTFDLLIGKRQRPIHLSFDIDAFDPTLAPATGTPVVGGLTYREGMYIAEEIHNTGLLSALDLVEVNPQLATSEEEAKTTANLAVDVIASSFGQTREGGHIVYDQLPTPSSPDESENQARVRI
# Experimental: (§1) The assay established the concentration of inhibitor that is required to reduce arginase activity by 50% (IC50).
# (§2) Inhibition of arginase I (ARG I) and arginase II (ARG II) by Formula I and Formula II compounds is followed spectrophotometrically at 530 nm. The compound to be tested is dissolved in DMSO at an initial concentration 50-fold greater than its final concentration in the cuvette. 10 μl of the stock solution is diluted in 90 μl of the assay buffer that comprises 0.1M sodium phosphate buffer containing 130 mM NaCl, pH 7.4, to which is added ovalbumin (OVA) at a concentration of 1 mg/ml. Solutions of arginase I and II are prepared in 100 mM sodium phosphate buffer, pH 7.4 containing 1 mg/ml of OVA to give an arginase stock solution at a final concentration of 100 ng/ml.
# (§3) To each well of a 96-well microtiter plate is add 40 μl of enzyme, 10 μl of an inventive compound and 10 μl of enzyme substrate (L-arginine+manganese sulfate). For wells that are used as positive controls, only the enzyme and its substrate are added, while wells used as negative controls contain only manganese sulfate.
# (§4) After incubating the microtiter plate at 37° C. for 60 minutes, 150 μl of a urea reagent obtained by combining equal proportions (1:1) of reagents A and B is added to each well of the microtiter plate to stop the reaction. The urea reagent is made just before use by combining Reagent A (10 mM o-phthaldialdehyde, and 0.4% polyoxyethylene (23) lauryl ether (w/v) in 1.8 M sulfuric acid) with Reagent B (1.3 mM primaquine diphosphate, 0.4% polyoxyethylene (23) lauryl ether (w/v), 130 mM boric acid in 3.6 M sulfuric acid). After quenching the reaction mixture, the microtiter plate is allowed to stand for an additional 10 minutes at room temperature to allow color development. The inhibition of arginase is computed by measuring the optical density (OD) of the reaction mixture at 530 nm and normalizing the OD value to percent inhibition observed in the control. The normalized OD is then used to generate a dose-response curve by plotting the normalized OD values against log [concentration] and using regression analysis to compute the IC50 values.
# [2] = target: T2, human arginase I (ARG I) (Homo sapiens, UniProt P05089); assay: Inhibition of arginase I, spectrophotometric urea assay at 530 nm; type: biochemical; conditions: read-out: Potency (ARG I)
# T2 sequence (P05089 1-322): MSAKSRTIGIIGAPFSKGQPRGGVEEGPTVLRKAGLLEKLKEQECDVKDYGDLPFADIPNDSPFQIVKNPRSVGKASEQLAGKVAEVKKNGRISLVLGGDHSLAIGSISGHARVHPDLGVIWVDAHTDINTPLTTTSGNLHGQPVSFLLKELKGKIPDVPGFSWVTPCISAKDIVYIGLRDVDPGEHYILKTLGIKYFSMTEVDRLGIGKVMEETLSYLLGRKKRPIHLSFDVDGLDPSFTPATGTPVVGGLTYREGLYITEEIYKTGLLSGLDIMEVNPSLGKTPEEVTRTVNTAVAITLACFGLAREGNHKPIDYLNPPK
# Experimental: as §1, §2, §3, §4
# [3] = Formula I compounds, Table 2, read-out: Potency (ARG II)
# [4] = Formula II compounds, Table 2-A, read-out: Potency (ARG)
# [5] = Formula II compounds, Table 2-A
SMILES,"IC50 [1, 3]","IC50 ([2]; Formula I compounds, Table 2)","IC50 [1, 4]","IC50 [2, 5]"
"N[C@](CCCCB(O)O)(CCN1CCC(CCO)CC1)C(=O)O [compound 9, (R)-2-amino-6-borono-2-(2-(4-(2-hydroxyethyl)piperidin-1-yl)ethyl)hexanoic acid dihydrochloride]",251 to 1000 nM,0.1 to 250 nM,,
"NC(CCCCB(O)O)(CCOc1ccc(Cl)cc1Cl)C(=O)O (stereo not drawn) [compound 94, 2-Amino-6-borono-2-[2-(2,4-dichlorophenoxy)-ethyl]-hexanoic acid hydrochloride]",> 5000 nM,> 5000 nM,,
"CCN(CCC(N)(CCCCB(O)O)C(=O)O)Cc1ccccc1 (racemic) [compound 19, (R/S)-2-Amino-2-[2-(benzyl-ethyl-amino)-ethyl]-6-borono-hexanoic acid dihydrochloride]",1000 to 2000 nM,2000 to 5000 nM,,
"NC(CCCCB(O)O)(CCN1CC(O)C1)C(=O)O (stereo not drawn) [compound 59, 2-amino-6-borono-2-(2-(3-hydroxyazetidin-1-yl)ethyl)hexanoic acid dihydrochloride]",2000 to 5000 nM,1000 to 2000 nM,,
"NC(CCCCB(O)O)(CCNC(=S)Nc1ccc(Cl)c(Cl)c1)C(=O)O (stereo not drawn) [compound 119, 2-amino-6-borono-2-(2-(3-(3,4-dichlorophenyl)thioureido)ethyl)hexanoic acid hydrochloride]",1000 to 2000 nM,251 to 1000 nM,,
"CC(CC(N)(CCCCB(O)O)C(=O)O)N1CCC(Cc2ccccc2)CC1 (stereo not drawn) [compound 124, 2-amino-2-(2-(4-benzylpiperidin-1-yl)propyl)-6-boronohexanoic acid dihydrochloride]",2000 to 5000 nM,251 to 1000 nM,,
"NC(CCCCB(O)O)(C(=O)O)[C@@H]1CC(=O)N(c2ccc(Cl)cc2)C1 (stereo partly drawn) [14-A, 2-amino-6-borono-2-[1-(4-chlorophenyl)-5-oxo-pyrrolidin-3-yl]-hexanoic acid hydrochloride]",,,2000 to 5000 nM,2000 to 5000 nM
"N[C@](CCCCB(O)O)(CCN1CCCCC1)C(=O)O [compound 13, (R)-2-amino-6-borono-2-(2-(piperidin-1-yl)ethyl)hexanoic acid]",251 to 1000 nM,0.1 to 250 nM,,
"NC(CCCCB(O)O)(C(=O)O)C1CCN(c2nccc(C(F)(F)F)n2)CC1 (stereo not drawn) [2-A, 2-amino-6-borono-2-[(4-Trifluoromethyl-pyrimidin-2-yl)-piperidin-4-yl)-hexanoic acid hydrochloride]",,,2000 to 5000 nM,1000 to 2000 nM
"NC(CCCCB(O)O)(C(=O)O)C1CCN(C2CCCCC2)CC1 (stereo not drawn) [23-A, 2-amino-6-borono-2-(1-cyclohexylpiperidin-4-yl)hexanoic acid dihydrochloride]",,,251 to 1000 nM,251 to 1000 nM
"COc1cccc(-c2ccccc2CN2CCC(C(N)(CCCCB(O)O)C(=O)O)CC2)c1 (stereo not drawn) [Example 58-A, 2-amino-6-borono-2-(1-((3′-methoxybiphenyl-2-yl)methyl)piperidin-4-yl)hexanoic acid dihydrochloride]",,,251 to 1000 nM,0.1 to 250 nM
"NC(CCCCB(O)O)(CCN1CCC(O)(Cc2ccccc2)CC1)C(=O)O (stereo not drawn) [compound 34, 2-amino-2-(2-(4-benzyl-4-hydroxypiperidin-1-yl)ethyl)-6-boronohexanoic acid dihydrochloride]",1000 to 2000 nM,251 to 1000 nM,,
"NC(CCCCB(O)O)(C(=O)O)C1CCN(Cc2ccccc2N2CCOCC2)CC1 (stereo not drawn) [Example 54-A, 2-amino-6-borono-2-(1-(2-morpholinobenzyl)piperidin-4-yl)hexanoic acid dihydrochloride]",,,251 to 1000 nM,0.1 to 250 nM
NC(CCCCB(O)O)(C(=O)O)C1CCN(c2cc(C(F)(F)F)ccn2)CC1 (stereo not drawn) [9-A],,,2000 to 5000 nM,1000 to 2000 nM
"NC(CCCCB(O)O)(CCN1CCC(=O)CC1)C(=O)O (stereo not drawn) [compound 38, 2-amino-6-borono-2-(2-(4-oxopiperidin-1-yl)ethyl)hexanoic acid dihydrochloride]",2000 to 5000 nM,2000 to 5000 nM,,
"NC(CCCCB(O)O)(CCN1CCC(C(F)(F)F)CC1)C(=O)O (stereo not drawn) [compound 39, 2-amino-6-borono-2-(2-(4-(trifluoromethyl)piperidin-1-yl)ethyl)hexanoic acid dihydrochloride]",2000 to 5000 nM,1000 to 2000 nM,,
"NC(CCCCB(O)O)(C(=O)O)C1CCN(C(=S)Nc2ccc(Cl)cc2)CC1 (stereo not drawn) [34-A, 2-amino-6-borono-2-(1-{[(4-chlorophenyl)amino]carbonothioyl}piperidin-4-yl)hexanoic acid hydrochloride]",,,251 to 1000 nM,251 to 1000 nM
"NC(CCCCB(O)O)(C(=O)O)[C@@H]1CCN(Cc2ccc(C(F)(F)F)cc2)C1 (mixture of isomers) [38-A, 2-amino-6-borono-2-((R)-1-(4-(trifluoromethyl)benzyl)pyrrolidin-3-yl)hexanoic acid dihydrochloride]",,,251 to 1000 nM,251 to 1000 nM
"NC(CCCCB(O)O)(CCN1CCC1)C(=O)O (stereo not drawn) [compound 75, 2-amino-2-(2-(azetidin-1-yl)ethyl)-6-boronohexanoic acid dihydrochloride]",1000 to 2000 nM,251 to 1000 nM,,
"NC(CCCCB(O)O)(C(=O)O)[C@@H]1CCN(S(=O)(=O)c2ccccc2[N+](=O)[O-])C1 (stereo partly drawn) [Example 40-A, 2-amino-6-borono-2-((R)-1-(2-nitrophenylsulfonyl)pyrrolidin-3-yl)hexanoic acid]",,,251 to 1000 nM,251 to 1000 nM
"NC(CCCCB(O)O)(C(=O)O)C1CCN(CCCc2ccc(C(F)(F)F)cc2)CC1 (stereo not drawn) [Example 63-A, 2-amino-6-borono-2-(1-(3-(4-(trifluoromethyl)phenyl)propyl)piperidin-4-yl)hexanoic acid acid dihydrochloride]",,,0.1 to 250 nM,0.1 to 250 nM
"COc1cc2c(cc1OC)CN(CCC(N)(CCCCB(O)O)C(=O)O)CC2 (stereo not drawn) [compound 26, 2-Amino-6-borono-2-[2-(6,7-dimethoxy-3,4-dihydro-1H-isoquinolin-2-yl)ethyl]-hexanoic acid dihydrochloride]",251 to 1000 nM,251 to 1000 nM,,
"NC(CCCCB(O)O)(CCN1CCc2ccsc2C1)C(=O)O (stereo not drawn) [compound 62, 2-amino-6-borono-2-(2-(4,5-dihydrothieno[2,3-c]pyridin-6(7H)-yl)ethyl)hexanoic acid dihydrochloride]",1000 to 2000 nM,251 to 1000 nM,,
"COC[C@@H]1CCCN1CCC(N)(CCCCB(O)O)C(=O)O (stereo partly drawn) [compound 33, 2-amino-6-borono-2-(2-((S)-2-(methoxymethyl)pyrrolidin-1-yl)ethyl)hexanoic acid dihydrochloride]",251 to 1000 nM,251 to 1000 nM,,
"NC(CCCCB(O)O)(C(=O)O)[C@H]1C[C@@H](NCc2ccc(Cl)cc2)C1 (stereo partly drawn) [Example 82-A, cis-2-amino-6-borono-2-(3-(4-chlorobenzylamino)cyclobutyl)hexanoic acid dihydrochloride]",,,0.1 to 250 nM,0.1 to 250 nM
"N[C@](CCCCB(O)O)(CCN1CC[C@@H](CO)C1)C(=O)O [compound 7, (R)-2-amino-6-borono-2-(2-((R)-3-(hydroxymethyl)pyrrolidin-1-yl)ethyl)hexanoic acid dihydrochloride]",251 to 1000 nM,0.1 to 250 nM,,
"NC(CCCCB(O)O)(CC[C@@H]1CCCN1)C(=O)O (stereo partly drawn) [compound 143, 2-amino-6-borono-2-(2-((S)-pyrrolidin-2-yl)ethyl)hexanoic acid dihydrochloride]",0.1 to 250 nM,0.1 to 250 nM,,
